{"source": "ChEMBL document CHEMBL2073883", "about": "“Interaction of docetaxel (\"Taxotere\") with human P-glycoprotein” (Jpn J Cancer Res, 1999)", "biological_target": "ATP-dependent translocase ABCB1 (Homo sapiens, UniProt P08183)", "sequence (P08183 whole entry)": "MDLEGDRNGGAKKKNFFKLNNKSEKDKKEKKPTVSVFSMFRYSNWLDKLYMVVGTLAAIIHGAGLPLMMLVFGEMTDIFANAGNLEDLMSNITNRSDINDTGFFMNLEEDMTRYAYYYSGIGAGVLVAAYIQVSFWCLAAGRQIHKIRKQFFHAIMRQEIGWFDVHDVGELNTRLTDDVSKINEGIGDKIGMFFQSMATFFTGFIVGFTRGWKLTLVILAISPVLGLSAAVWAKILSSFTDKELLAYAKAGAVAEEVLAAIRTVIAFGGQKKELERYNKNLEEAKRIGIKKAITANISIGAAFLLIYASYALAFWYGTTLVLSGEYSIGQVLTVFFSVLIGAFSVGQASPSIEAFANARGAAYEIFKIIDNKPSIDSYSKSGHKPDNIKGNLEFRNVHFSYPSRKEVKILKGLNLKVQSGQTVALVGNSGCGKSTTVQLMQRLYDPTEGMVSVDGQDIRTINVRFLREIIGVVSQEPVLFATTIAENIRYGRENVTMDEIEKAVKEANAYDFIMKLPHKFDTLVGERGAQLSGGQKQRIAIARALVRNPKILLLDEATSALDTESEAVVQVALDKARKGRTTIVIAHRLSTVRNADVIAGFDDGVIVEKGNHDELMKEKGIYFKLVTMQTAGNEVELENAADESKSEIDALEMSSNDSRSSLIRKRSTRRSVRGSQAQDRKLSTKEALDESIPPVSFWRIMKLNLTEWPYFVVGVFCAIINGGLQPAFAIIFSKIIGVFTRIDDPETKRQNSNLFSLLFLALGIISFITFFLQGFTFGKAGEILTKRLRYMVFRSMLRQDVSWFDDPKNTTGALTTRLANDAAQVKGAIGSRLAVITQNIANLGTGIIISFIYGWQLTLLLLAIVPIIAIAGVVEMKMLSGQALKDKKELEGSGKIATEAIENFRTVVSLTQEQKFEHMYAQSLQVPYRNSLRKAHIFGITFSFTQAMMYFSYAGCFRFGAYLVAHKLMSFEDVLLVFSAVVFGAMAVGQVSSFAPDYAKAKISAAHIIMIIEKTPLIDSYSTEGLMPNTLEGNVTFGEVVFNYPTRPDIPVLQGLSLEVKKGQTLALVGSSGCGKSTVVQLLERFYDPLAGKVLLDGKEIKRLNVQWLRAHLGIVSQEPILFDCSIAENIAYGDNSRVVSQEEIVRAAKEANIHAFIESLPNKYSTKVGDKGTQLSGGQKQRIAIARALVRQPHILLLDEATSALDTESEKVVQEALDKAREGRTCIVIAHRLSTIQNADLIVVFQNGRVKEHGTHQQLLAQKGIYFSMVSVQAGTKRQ", "test": "TP_TRANSPORTER: transepithelial transport (basal to apical) in MDR1-expressing LLC-PK1 cells", "type": "functional, cell-based", "details": "pig", "data": [{"smiles": "CC(=O)O[C@@]12CO[C@@H]1C[C@H](O)[C@@]1(C)C(=O)[C@H](O)C3=C(C)[C@@H](OC(=O)[C@H](O)[C@@H](NC(=O)OC(C)(C)C)c4ccccc4)C[C@@](O)([C@@H](OC(=O)c4ccccc4)[C@H]21)C3(C)C.O.O.O", "note": "[DOCETAXEL]", "values": [{"measurement": "Activity", "value": "substrate [+]"}]}]}
